Measurements: ChEMBL document CHEMBL4507295 (2021)

How the values were obtained:
[1] = system: Tyrosine-protein kinase ABL1 (Homo sapiens), P00519 [Q252H]; settings: Compound concentration 1000.0 nM
[2] = target: 5'-AMP-activated protein kinase catalytic subunit alpha-1 (Homo sapiens) (UniProt Q13131); settings: Compound concentration 1000.0 nM
[3] = target: Calcium/calmodulin-dependent protein kinase type 1G (Homo sapiens) (UniProt Q96NX5); settings: Compound concentration 1000.0 nM
[4] = target: Calcium/calmodulin-dependent protein kinase type II subunit alpha (Homo sapiens) (UniProt Q9UQM7); settings: Compound concentration 1000.0 nM
[5] = target: Peripheral plasma membrane protein CASK (Homo sapiens) (UniProt O14936); settings: Compound concentration 1000.0 nM
[6] = target: Cyclin-dependent kinase 19 (Homo sapiens) (UniProt Q9BWU1); settings: Compound concentration 1000.0 nM
[7] = target: Cyclin-dependent kinase-like 2 (Homo sapiens) (UniProt Q92772); settings: Compound concentration 1000.0 nM
[8] = target: Dual specificity protein kinase CLK3 (Homo sapiens) (UniProt P49761); settings: Compound concentration 1000.0 nM
[9] = target: Serine/threonine-protein kinase DCLK1 (Homo sapiens) (UniProt O15075); settings: Compound concentration 1000.0 nM
[10] = system: Epidermal growth factor receptor (Homo sapiens), P00533 [G719S]; settings: Compound concentration 1000.0 nM
[11] = system: Receptor-type tyrosine-protein kinase FLT3 (Homo sapiens), P36888 [K663Q]; settings: Compound concentration 1000.0 nM
[12] = target: Insulin receptor-related protein (Homo sapiens) (UniProt P14616); settings: Compound concentration 1000.0 nM
[13] = system: Mast/stem cell growth factor receptor Kit (Homo sapiens), P10721 [A829P]; settings: Compound concentration 1000.0 nM
[14] = target: Mitogen-activated protein kinase kinase kinase kinase 2 (Homo sapiens) (UniProt Q12851); settings: Compound concentration 1000.0 nM
[15] = target: Serine/threonine-protein kinase 4 (Homo sapiens) (UniProt Q13043); settings: Compound concentration 1000.0 nM
[16] = target: Serine/threonine-protein kinase 3 (Homo sapiens) (UniProt Q13188); settings: Compound concentration 1000.0 nM
[17] = target: Serine/threonine-protein kinase 26 (Homo sapiens) (UniProt Q9P289); settings: Compound concentration 1000.0 nM
[18] = target: Serine/threonine-protein kinase NLK (Homo sapiens) (UniProt Q9UBE8); settings: Compound concentration 1000.0 nM
[19] = system: Phosphatidylinositol 4,5-bisphosphate 3-kinase catalytic subunit alpha isoform (Homo sapiens), P42336 [E545K]; settings: Compound concentration 1000.0 nM
[20] = target: 1-phosphatidylinositol 3-phosphate 5-kinase (Homo sapiens) (UniProt Q9Y2I7); settings: Compound concentration 1000.0 nM
[21] = target: Serine/threonine-protein kinase pim-1 (Homo sapiens) (UniProt P11309); settings: Compound concentration 1000.0 nM
[22] = target: Serine/threonine-protein kinase N1 (Homo sapiens) (UniProt Q16512); settings: Compound concentration 1000.0 nM
[23] = target: Serine/threonine-protein kinase PknB (Mycobacterium tuberculosis) (UniProt P9WI81); settings: Compound concentration 1000.0 nM
[24] = target: Protein kinase C epsilon type (Homo sapiens) (UniProt Q02156); settings: Compound concentration 1000.0 nM
[25] = target: Interferon-induced, double-stranded RNA-activated protein kinase (Homo sapiens) (UniProt P19525); settings: Compound concentration 1000.0 nM
[26] = target: Serine/threonine-protein kinase RIO2 (Homo sapiens) (UniProt Q9BVS4); settings: Compound concentration 1000.0 nM
[27] = target: Serine/threonine-protein kinase Sgk1 (Homo sapiens) (UniProt O00141); settings: Compound concentration 1000.0 nM
[28] = target: Non-receptor tyrosine-protein kinase TNK1 (Homo sapiens) (UniProt Q13470); settings: Compound concentration 1000.0 nM
[29] = target: Serine/threonine-protein kinase 32C (Homo sapiens) (UniProt Q86UX6); settings: Compound concentration 1000.0 nM
[30] = target: T1, 5-hydroxytryptamine receptor 3A (Homo sapiens) (UniProt P46098); settings: Compound concentration 10.0 uM
T1 sequence (whole entry): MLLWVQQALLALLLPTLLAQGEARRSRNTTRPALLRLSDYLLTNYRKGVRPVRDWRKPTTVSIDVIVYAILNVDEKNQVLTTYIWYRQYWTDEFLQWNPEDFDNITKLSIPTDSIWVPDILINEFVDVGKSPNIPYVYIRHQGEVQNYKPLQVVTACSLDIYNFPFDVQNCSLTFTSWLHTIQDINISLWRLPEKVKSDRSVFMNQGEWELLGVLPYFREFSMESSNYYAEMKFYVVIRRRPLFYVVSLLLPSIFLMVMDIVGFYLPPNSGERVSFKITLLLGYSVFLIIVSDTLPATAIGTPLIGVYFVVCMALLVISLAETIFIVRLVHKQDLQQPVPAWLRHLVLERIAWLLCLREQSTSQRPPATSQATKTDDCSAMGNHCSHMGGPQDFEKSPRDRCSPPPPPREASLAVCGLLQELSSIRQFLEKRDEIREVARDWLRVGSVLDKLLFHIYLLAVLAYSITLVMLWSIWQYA

[31] = target: Histamine H1 receptor (Homo sapiens) (UniProt P35367); settings: Compound concentration 10.0 uM
[32] = target: T2, Alpha-2B adrenergic receptor (Homo sapiens) (UniProt P18089); settings: Compound concentration 10.0 uM
T2 sequence (whole entry): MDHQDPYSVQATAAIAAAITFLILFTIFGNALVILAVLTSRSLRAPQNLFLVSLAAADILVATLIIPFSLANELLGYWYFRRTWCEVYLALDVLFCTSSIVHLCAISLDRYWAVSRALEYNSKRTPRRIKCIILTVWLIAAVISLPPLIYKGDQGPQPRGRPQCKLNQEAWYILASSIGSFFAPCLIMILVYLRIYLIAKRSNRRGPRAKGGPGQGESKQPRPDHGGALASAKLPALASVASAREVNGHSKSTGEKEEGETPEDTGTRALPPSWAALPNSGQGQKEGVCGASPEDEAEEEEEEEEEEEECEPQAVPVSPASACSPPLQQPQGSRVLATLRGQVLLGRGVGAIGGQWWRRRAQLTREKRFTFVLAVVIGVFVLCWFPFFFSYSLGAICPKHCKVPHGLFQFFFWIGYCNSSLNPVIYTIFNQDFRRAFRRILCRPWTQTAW

Sequence of Mitogen-activated protein kinase kinase kinase kinase 2 (Homo sapiens) (Q12851 whole entry): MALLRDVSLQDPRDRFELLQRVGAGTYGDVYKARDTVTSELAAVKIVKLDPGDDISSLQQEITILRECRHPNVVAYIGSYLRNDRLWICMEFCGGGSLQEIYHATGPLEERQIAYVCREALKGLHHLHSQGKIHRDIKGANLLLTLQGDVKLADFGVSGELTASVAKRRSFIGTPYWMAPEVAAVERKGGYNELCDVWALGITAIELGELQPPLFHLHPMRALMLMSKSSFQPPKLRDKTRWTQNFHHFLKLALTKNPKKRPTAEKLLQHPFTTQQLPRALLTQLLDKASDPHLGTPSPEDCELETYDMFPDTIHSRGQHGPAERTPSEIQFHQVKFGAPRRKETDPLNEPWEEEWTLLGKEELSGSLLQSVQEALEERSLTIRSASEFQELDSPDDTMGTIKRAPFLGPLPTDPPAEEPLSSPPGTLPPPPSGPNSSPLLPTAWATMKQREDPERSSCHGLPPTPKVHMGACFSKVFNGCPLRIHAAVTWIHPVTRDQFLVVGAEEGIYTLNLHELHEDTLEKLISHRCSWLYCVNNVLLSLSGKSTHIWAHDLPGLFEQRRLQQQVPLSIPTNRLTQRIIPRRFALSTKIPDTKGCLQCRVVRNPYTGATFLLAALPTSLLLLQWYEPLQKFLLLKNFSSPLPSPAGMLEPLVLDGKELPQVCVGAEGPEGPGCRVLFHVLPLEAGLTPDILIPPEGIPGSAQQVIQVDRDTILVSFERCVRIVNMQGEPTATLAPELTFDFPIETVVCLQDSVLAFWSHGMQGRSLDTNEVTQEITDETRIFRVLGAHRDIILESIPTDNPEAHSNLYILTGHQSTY
Sequence of Calcium/calmodulin-dependent protein kinase type 1G (Homo sapiens) (Q96NX5 whole entry): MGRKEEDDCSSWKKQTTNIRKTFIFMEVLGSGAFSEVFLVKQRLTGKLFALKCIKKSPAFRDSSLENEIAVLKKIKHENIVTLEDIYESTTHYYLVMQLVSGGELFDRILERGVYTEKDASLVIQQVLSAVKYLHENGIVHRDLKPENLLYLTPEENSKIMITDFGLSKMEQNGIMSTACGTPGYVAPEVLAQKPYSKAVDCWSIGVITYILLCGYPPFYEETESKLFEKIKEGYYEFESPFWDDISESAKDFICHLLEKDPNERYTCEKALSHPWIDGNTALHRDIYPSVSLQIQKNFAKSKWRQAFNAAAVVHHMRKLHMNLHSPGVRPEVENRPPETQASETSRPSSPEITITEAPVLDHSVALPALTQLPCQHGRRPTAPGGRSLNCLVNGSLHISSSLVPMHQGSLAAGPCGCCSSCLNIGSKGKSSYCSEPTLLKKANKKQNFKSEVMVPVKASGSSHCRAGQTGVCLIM
Sequence of Serine/threonine-protein kinase PknB (Mycobacterium tuberculosis) (P9WI81 whole entry): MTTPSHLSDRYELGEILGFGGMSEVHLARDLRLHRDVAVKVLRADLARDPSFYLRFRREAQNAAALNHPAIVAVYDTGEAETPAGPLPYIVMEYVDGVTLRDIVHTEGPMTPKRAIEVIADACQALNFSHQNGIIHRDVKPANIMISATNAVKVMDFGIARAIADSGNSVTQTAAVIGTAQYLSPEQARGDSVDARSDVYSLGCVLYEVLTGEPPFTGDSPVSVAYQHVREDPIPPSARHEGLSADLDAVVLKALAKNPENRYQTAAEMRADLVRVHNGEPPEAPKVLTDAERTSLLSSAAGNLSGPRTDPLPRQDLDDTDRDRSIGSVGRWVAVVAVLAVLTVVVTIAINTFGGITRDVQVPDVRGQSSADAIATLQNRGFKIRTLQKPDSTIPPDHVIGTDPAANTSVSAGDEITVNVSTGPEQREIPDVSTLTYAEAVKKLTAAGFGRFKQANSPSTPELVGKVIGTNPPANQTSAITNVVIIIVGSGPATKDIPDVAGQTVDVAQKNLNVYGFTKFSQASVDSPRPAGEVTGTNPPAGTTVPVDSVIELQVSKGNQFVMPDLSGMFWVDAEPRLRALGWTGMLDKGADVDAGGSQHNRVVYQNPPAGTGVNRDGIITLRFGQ
Sequence of Serine/threonine-protein kinase 26 (Homo sapiens) (Q9P289 2-416 limits assumed): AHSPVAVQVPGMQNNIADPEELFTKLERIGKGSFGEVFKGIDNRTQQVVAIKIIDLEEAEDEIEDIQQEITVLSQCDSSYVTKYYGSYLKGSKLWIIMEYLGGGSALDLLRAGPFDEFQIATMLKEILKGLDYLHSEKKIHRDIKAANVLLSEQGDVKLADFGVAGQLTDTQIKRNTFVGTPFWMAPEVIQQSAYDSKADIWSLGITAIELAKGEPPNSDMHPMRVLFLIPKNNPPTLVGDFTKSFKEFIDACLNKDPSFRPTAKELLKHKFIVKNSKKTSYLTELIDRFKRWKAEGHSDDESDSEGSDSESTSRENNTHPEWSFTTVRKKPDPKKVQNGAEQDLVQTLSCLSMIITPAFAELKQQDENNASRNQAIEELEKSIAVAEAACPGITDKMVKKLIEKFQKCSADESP
Sequence of Protein kinase C epsilon type (Homo sapiens) (Q02156 whole entry): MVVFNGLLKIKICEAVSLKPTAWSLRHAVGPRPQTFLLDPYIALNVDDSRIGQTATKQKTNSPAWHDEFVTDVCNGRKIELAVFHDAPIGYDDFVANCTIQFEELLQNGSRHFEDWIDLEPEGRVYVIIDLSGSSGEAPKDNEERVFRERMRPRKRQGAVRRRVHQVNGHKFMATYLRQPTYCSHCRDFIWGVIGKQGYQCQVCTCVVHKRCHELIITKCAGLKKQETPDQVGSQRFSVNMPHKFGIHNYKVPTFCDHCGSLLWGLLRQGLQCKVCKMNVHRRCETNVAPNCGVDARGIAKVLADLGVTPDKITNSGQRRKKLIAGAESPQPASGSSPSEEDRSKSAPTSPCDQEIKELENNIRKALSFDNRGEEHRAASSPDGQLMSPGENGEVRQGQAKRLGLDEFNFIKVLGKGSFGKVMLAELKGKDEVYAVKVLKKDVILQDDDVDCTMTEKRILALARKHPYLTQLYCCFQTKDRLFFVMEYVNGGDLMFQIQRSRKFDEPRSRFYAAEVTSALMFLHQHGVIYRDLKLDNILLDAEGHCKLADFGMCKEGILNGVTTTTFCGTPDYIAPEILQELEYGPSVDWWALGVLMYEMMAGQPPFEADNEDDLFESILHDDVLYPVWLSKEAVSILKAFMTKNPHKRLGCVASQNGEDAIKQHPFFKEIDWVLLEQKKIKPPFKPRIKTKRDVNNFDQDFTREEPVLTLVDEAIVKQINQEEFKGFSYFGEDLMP
Sequence of Insulin receptor-related protein (Homo sapiens) (P14616 27-742 limits assumed): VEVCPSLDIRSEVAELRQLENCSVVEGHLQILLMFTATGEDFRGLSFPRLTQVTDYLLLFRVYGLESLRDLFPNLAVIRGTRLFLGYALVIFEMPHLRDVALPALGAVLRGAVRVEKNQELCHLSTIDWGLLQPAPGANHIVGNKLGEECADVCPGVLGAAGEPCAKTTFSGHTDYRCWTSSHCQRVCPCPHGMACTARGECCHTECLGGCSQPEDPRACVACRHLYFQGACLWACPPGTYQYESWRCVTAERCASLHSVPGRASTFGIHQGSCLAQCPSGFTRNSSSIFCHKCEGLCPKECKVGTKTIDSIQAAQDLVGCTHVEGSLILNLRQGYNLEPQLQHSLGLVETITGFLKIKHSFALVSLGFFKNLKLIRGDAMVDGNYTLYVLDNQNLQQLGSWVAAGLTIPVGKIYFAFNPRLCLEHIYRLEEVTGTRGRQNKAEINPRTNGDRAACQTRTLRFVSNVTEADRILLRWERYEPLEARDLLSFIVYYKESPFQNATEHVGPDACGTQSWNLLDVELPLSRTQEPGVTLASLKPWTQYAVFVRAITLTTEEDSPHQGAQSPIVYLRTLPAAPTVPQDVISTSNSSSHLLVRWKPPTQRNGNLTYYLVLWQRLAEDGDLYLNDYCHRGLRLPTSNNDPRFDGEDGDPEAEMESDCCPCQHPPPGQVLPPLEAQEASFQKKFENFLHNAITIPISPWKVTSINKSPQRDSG
Sequence of Insulin receptor-related protein (Homo sapiens) (P14616 747-1297 limits assumed): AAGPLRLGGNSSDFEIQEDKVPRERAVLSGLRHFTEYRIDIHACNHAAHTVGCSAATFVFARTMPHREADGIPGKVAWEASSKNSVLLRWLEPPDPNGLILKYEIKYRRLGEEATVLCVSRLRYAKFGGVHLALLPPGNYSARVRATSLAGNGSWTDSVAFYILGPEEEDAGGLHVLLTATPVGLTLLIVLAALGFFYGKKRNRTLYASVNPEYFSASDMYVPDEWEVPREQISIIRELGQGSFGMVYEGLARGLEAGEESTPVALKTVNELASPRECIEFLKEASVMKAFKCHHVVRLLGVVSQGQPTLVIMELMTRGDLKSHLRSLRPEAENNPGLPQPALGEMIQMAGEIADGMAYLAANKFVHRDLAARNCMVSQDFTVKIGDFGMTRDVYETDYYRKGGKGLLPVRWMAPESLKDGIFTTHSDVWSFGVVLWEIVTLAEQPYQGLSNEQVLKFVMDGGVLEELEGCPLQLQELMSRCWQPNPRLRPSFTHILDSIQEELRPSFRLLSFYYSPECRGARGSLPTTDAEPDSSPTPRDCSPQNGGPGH
Sequence of Serine/threonine-protein kinase 4 (Homo sapiens) (Q13043 whole entry): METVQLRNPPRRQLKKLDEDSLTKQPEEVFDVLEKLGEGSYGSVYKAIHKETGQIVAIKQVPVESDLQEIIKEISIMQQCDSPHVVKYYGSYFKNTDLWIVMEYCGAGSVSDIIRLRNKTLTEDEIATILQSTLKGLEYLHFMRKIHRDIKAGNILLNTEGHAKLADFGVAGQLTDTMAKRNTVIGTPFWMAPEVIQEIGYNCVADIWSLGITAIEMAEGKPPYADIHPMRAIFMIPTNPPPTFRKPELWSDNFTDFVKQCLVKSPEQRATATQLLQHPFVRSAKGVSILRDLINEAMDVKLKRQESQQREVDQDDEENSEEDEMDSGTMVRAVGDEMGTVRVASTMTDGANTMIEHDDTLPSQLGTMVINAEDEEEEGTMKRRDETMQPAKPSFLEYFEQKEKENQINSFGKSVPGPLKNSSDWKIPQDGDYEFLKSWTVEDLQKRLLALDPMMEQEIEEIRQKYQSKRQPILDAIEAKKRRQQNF

Compound: N#CC1(c2ccccn2)CCN(Cc2cc(C(=O)N3CCCC3)c(=O)n3ccccc23)CC1
- residual activity [1]: 90%
- residual activity [2]: 100%
- residual activity [3]: 100%
- residual activity [4]: 84%
- residual activity [5]: 100%
- residual activity [6]: 75%
- residual activity [7]: 93%
- residual activity [8]: 99%
- residual activity [9]: 91%
- residual activity [10]: 100%
- residual activity [11]: 30%
- residual activity [12]: 93%
- residual activity [13]: 50%
- residual activity [14]: 96%
- residual activity [15]: 88%
- residual activity [16]: 92%
- residual activity [17]: 100%
- residual activity [18]: 92%
- residual activity [19]: 76%
- residual activity [20]: 76%
- residual activity [21]: 100%
- residual activity [22]: 91%
- residual activity [23]: 92%
- residual activity [24]: 79%
- residual activity [25]: 100%
- residual activity [26]: 95%
- residual activity [27]: 100%
- residual activity [28]: 72%
- residual activity [29]: 100%
- inhibition [30]: 6.59%
- inhibition [31]: 9.7%
- inhibition [32]: -2.99%

Compound: N#CC1(c2ccccn2)CCN(Cc2cc(C(=O)O)c(=O)n3ccccc23)CC1 [MSD-M1PAM]
- residual activity [1]: 72%
- residual activity [2]: 100%
- residual activity [3]: 100%
- residual activity [4]: 83%
- residual activity [5]: 100%
- residual activity [6]: 82%
- residual activity [7]: 100%
- residual activity [8]: 100%
- residual activity [9]: 100%
- residual activity [10]: 90%
- residual activity [11]: 100%
- residual activity [12]: 97%
- residual activity [13]: 84%
- residual activity [14]: 81%
- residual activity [15]: 100%
- residual activity [16]: 98%
- residual activity [17]: 100%
- residual activity [18]: 100%
- residual activity [19]: 100%
- residual activity [20]: 97%
- residual activity [21]: 99%
- residual activity [22]: 100%
- residual activity [23]: 88%
- residual activity [24]: 100%
- residual activity [25]: 95%
- residual activity [26]: 92%
- residual activity [27]: 87%
- residual activity [28]: 93%
- residual activity [29]: 72%
- inhibition [30]: 12%
- inhibition [31]: 28.4%
- inhibition [32]: -6.86%
